Measurements published in patent EP0598515A1, “Method for herbicidal activity-enhancing, activity-enhanced herbicidal composition and activity-enhancing composition” (ISHIHARA SANGYO KAISHA LTD., priority 1992, dated 1994).
Where two headings read alike, the source gives them in different places.

How the values were obtained:
Format in all cases: in vivo
[1] = system: Velvetleaf (Abutilon theophrasti MEDIC.); test: Test Example 13: field plot test, growth inhibition; conditions: 648 h, Example 8 suspension concentrate, 27 days after treatment, field plots; for inhibition at 30 g/ha: Compound A 30 g/ha; for inhibition at 40 g/ha: Compound A 40 g/ha
Text: (§1) In field plots of 4 m² (1 m × 4 m) unit arranged in a duplicate system, seeds of corn, crabgrass (Digitaria sanguinalis L.) common lambsquarters (Chenopodium album L.), slender amaranth (Amaranthus viridis L.), velvetleaf (Abutilon theophrasti MEDIC.) and common cocklebur (Xanthium strumarium L.) were sown and grown. Also, green foxtail (Setaria viridis L.) and barnyardgrass (Echinochloa crus-galli L.) were allowed to grow spontaneously. When the plants grew to certain stages (corn: 4.2 to 6.0-leaf stage, crabgrass: 3.2 to 5.0-leaf stage, common lambsquarters: 3.0 to 6.0-leaf stage, slender amaranth: 2.0 to 5.0-leaf stage, velvetleaf: 1.5 to 4.0-leaf stage, common cocklebur: cotyledonal to 3.5-leaf stage, green foxtail: 3.0 to 5.0-leaf stage and barnyardgrass: 3.0 to 5.0-leaf stage), the oil-based suspension concentrate obtained in Example 8 was diluted with 200 liters/hectare of water containing a predetermined amount of Frigate and was applied foliarly to the plants with a small spray gun.
(§2) Twenty seven days after treatment, the growth inhibition of plants except for corn plants was evaluated with visual observation in the same manner as in Test Example 1 and are shown in Table 13.

[2] = system: slender amaranth (Amaranthus viridis L.); test: as above; conditions: 648 h, Example 8 suspension concentrate, 27 days after treatment, field plots, read-out: Growth Inhibition (%) AV; for inhibition at 30 g/ha: Compound A 30 g/ha; for inhibition at 40 g/ha: Compound A 40 g/ha
Text: as §1, §2

[3] = system: Common lambsquarters (Chenopodium album L.); test: Test Example 8: pot test, Example 8 suspension concentrate with Frigate; conditions: 408 h, 17 days after treatment, duplicate, read-out: Growth Inhibition (%) of Common Lambsquarters; for inhibition at 5 g/ha: Compound A 5 g/ha; for inhibition at 10 g/ha: Compound A 10 g/ha; for inhibition at 20 g/ha: Compound A 20 g/ha; for inhibition at 40 g/ha: Compound A 40 g/ha
Procedure: Common lambsquarters (Chenopodium album L.) seeds were sown in 1/1,000,000-hectare pots filled with upland soil and arranged in a duplicate system. When the common lambsquarters plants grew to a 8- to 9-leaf stage, the oil-based suspension concentrate obtained in Example 8 was diluted with 500 liters/hectare of water containing a predetermined amount of Frigate and was applied foliarly to the plants with a small spray gun.
Seventeen days after treatment, the growth inhibition of plants was evaluated with visual observation in the same manner as in Test Example 1 and are shown in Table 8.

[4] = system: johnsongrass (Sorghum halepense L.); test: Test Example 10: pot test on rhizome plants, Example 8 suspension concentrate with Frigate; conditions: duplicate; for Growth Inhibition (%) of Johnsongrass 17 D.A.T. / inhibition at 10 g/ha / inhibition at 20 g/ha / inhibition at 30 g/ha: 17 days after treatment; for Growth Inhibition (%) of Johnsongrass 56 D.A.T.: 56 days after treatment; for inhibition at 10 g/ha / inhibition at 20 g/ha / inhibition at 30 g/ha: Sorghum halepense, 408 h, read-out: Growth Inhibition (%) of Johnsongrass 17 D.A.T.; for inhibition at 10 g/ha: Compound A 10 g/ha
Procedure: Rhizomes of johnsongrass (Sorghum halepense L.) induced to germinate were transplanted in 1/150,000-hectare pots filled with upland soil and arranged in a duplicate system. When the johnsongrass plants grew to a 3- to 6-leaf stage, the oil-based suspension concentrate obtained in Example 8 was diluted with 200 liters/hectare of water containing a predetermined amount of Frigate and was applied foliarly to the plants with a small spray gun.
Seventeen days and fifty six days after treatment (D.A.T.) the growth inhibition of plants was evaluated with visual observation in the same manner as in Test Example 1 and are shown in Table 10.

[5] = Frigate 0.2 % by volume, Compound A 20 g/ha
[6] = Frigate: No addition, Compound A 50 g/ha
[7] = Frigate 0.1 % by volume, Compound A 30 g/ha
[8] = Frigate 0.2 % by volume, Compound A 30 g/ha

COc1cc(OC)nc(NC(=O)NS(=O)(=O)c2ncccc2C(=O)N(C)C)n1 [Compound A, N-[(4,6-dimethoxypyrimidin-2-yl)aminocarbonyl]-3-dimethylaminocarbonyl-2-pyridinesulfonamide]
inhibition at 30 g/ha ([1]; Frigate 0.1 % by volume): 70% | inhibition at 40 g/ha ([1]; Frigate 0.1 % by volume): 70% | inhibition at 20 g/ha [1, 5]: 55% | inhibition at 30 g/ha ([1]; Frigate 0.2 % by volume): 70% | inhibition at 40 g/ha ([1]; Frigate 0.2 % by volume): 75% | inhibition at 30 g/ha ([1]; Frigate: No addition): 30% | inhibition at 40 g/ha ([1]; Frigate: No addition): 55% | inhibition at 50 g/ha [1, 6]: 70% | inhibition at 30 g/ha ([2]; Frigate 0.1 % by volume): 95% | inhibition at 40 g/ha ([2]; Frigate 0.1 % by volume): 90% | inhibition at 20 g/ha [2, 5]: 85% | inhibition at 30 g/ha ([2]; Frigate 0.2 % by volume): 90% | inhibition at 40 g/ha ([2]; Frigate 0.2 % by volume): 95% | inhibition at 30 g/ha ([2]; Frigate: No addition): 90% | inhibition at 40 g/ha ([2]; Frigate: No addition): 95% | inhibition at 50 g/ha [2, 6]: 95% | inhibition at 5 g/ha ([3]; Frigate 0.25 % by volume): 50% | inhibition at 10 g/ha ([3]; Frigate 0.25 % by volume): 60% | inhibition at 20 g/ha ([3]; Frigate 0.25 % by volume): 80% | inhibition at 40 g/ha ([3]; Frigate 0.25 % by volume): 90% | inhibition at 5 g/ha ([3]; Frigate 0.5 % by volume): 55% | inhibition at 10 g/ha ([3]; Frigate 0.5 % by volume): 70% | inhibition at 20 g/ha ([3]; Frigate 0.5 % by volume): 85% | inhibition at 40 g/ha ([3]; Frigate 0.5 % by volume): 90% | inhibition at 5 g/ha ([3]; Frigate: No addition): 0% | inhibition at 10 g/ha ([3]; Frigate: No addition): 0% | inhibition at 20 g/ha ([3]; Frigate: No addition): 50% | inhibition at 40 g/ha ([3]; Frigate: No addition): 80% | Growth Inhibition (%) of Johnsongrass 17 D.A.T. [4, 7]: 80% | Growth Inhibition (%) of Johnsongrass 17 D.A.T. [4, 5]: 80% | Growth Inhibition (%) of Johnsongrass 17 D.A.T. [4, 8]: 80% | Growth Inhibition (%) of Johnsongrass 56 D.A.T. [4, 8]: 98% | Growth Inhibition (%) of Johnsongrass 56 D.A.T. ([4]; Frigate: No addition, Compound A 40 g/ha): 98% | inhibition at 10 g/ha ([4]; Frigate 0.1 % by volume): 65% | inhibition at 20 g/ha ([4]; Frigate 0.1 % by volume, Compound A 20 g/ha): 75% | inhibition at 30 g/ha [4, 7]: 75% | inhibition at 10 g/ha ([4]; Frigate 0.2 % by volume): 70% | inhibition at 20 g/ha [4, 5]: 75% | inhibition at 30 g/ha [4, 8]: 85%
